The nature of data set [1]: Lipophilicity, log D of the compound at pH 7.4. The data set is classed as physicochemical. Conditions: buffer.
The nature of data set [2]: Intrinsic clearance in rat hepatocytes assessed as per million cells. The data set is classed as ADME, cell-based, Hepatocyte. Conditions: read-out: CLH.
Data set [3] in a line: Intrinsic clearance in dog hepatocytes assessed as per million cells. It is filed as ADME, cell-based, Canis lupus familiaris, Hepatocyte. The note with it: read-out: CLH.
Data set [4] in a line: Volume of distribution at steady state in rat. It is filed as ADME, organism-based. The note with it: in vivo, read-out: Vdss.
Data set [5] can be described thus: Clearance in rat. It is filed as ADME, organism-based. The note with it: in vivo.
Data set [6] is described as follows: Intrinsic clearance in human hepatocytes assessed as per million cells. It is filed as ADME, cell-based, Hepatocyte. Conditions: read-out: CLH.
Data set [7] is described as follows: Half life in dog. The data set is classed as ADME, organism-based, Canis lupus familiaris. Conditions: in vivo.
Data set [8] can be described thus: Volume of distribution at steady state in dog. It is filed as ADME, organism-based, Canis lupus familiaris. Conditions: in vivo, read-out: Vdss.
Data set [9] in a line: Oral bioavailability in rat. It is filed as ADME, organism-based. Conditions: in vivo.
A short description of data set [10]: Half life in rat. The data set is classed as ADME, organism-based. Conditions: in vivo.
Data set [11] can be described thus: Oral bioavailability in dog. It is filed as ADME, organism-based, Canis lupus familiaris. The note with it: in vivo.
The nature of data set [12]: Clearance in dog. It is filed as ADME, organism-based, Canis lupus familiaris. Conditions: in vivo.

Consider `COCCS(=O)(=O)Nc1cc(-c2sc(NC(C)=O)nc2C)cc2c1C(=O)N([C@@H](C)C1CC1)C2`, for which the logD in data set [1] is 3.5. In addition, the hepatocyte CLint in data set [2] turned out to be 166 µL/min/1e6 cells.
For `CC(=O)Nc1nc(C)c(-c2cc3c(c(S(C)(=O)=O)c2)C(=O)N([C@@H](C)C2CC2)C3)s1`, the hepatocyte CLint in data set [3] is 1 µL/min/1e6 cells; in [6] it was 0.4 µL/min/1e6 cells; in data set [2], 1.7 to 2 µL/min/1e6 cells. In [1], this compound came in with a log distribution coefficient (logD) of 2.4. Further, the Vd in data set [4] was determined as 1.2 L/kg; in [8], 1.1 L/kg. In data set [5], this compound came in with a clearance of 6.3 mL/min/kg. The half-life in data set [7] is 3.9 h; in data set [10], 2.3 h. The bioavailability in [9] was determined as 51%.
As for `CC(=O)Nc1nc(C)c(-c2cc(C)c3c(c2)CN([C@@H](C)C2CC2)C3=O)s1`, in data set [1], the logD is 4.3. Further, the hepatocyte CLint in data set [2] is 11 µL/min/1e6 cells.
For `CC(=O)Nc1nc(C)c(-c2cc(Cl)c3c(c2)CN([C@@H](C)C2CC2)C3=O)s1`, in that order: 3.9 and 3 µL/min/1e6 cells.
Regarding `CC(=O)Nc1nc(C)c(-c2cc3c(c(NS(C)(=O)=O)c2)C(=O)N([C@@H](C)C2CC2)C3)s1`, the values for the hepatocyte CLint in data set [3], in [6] and in data set [2] were 7.6 µL/min/1e6 cells, 3.4 µL/min/1e6 cells and 3.7 to 4 µL/min/1e6 cells, respectively. In addition, in data set [1], the logD was 3.3. Also, the Vd in data set [4] was 0.4 L/kg; in data set [8], 0.7 L/kg. Moreover, the figures for the bioavailability in [11] and in [9] were 1.6% and 49%, respectively. In addition, the clearance in data set [5] came out at 0.7 mL/min/kg; in data set [12] it was 6.2 mL/min/kg. Besides, the half-life in [7] is 1.3 h; in data set [10], 6.7 h.
For `C[C@@H](C1CC1)N1Cc2cc(-c3cnc(N)nc3)cc(Cl)c2C1=O`, the logD in [1] came to 2.6. Besides, the hepatocyte CLint in [2] worked out at 2 µL/min/1e6 cells.
Compound `CC(=O)Nc1nc(C)c(-c2cc(Cl)c3c(c2)CN([C@H](C)C2CC2)C3=O)s1` came in with a logD in data set [1] of 3.9. The hepatocyte CLint in [2] was 6 µL/min/1e6 cells.
For `COCCNS(=O)(=O)c1cc(-c2sc(NC(C)=O)nc2C)cc2c1C(=O)N([C@@H](C)C1CC1)C2`, in that order: 2.7 and 56 µL/min/1e6 cells.
Regarding `CC(=O)Nc1nc(C)c(-c2cc3c(c(S(N)(=O)=O)c2)C(=O)N([C@@H](C)C2CC2)C3)s1`, in data set [1], the logD turned out to be 2.5. Besides, the hepatocyte CLint in data set [2] was below 2 µL/min/1e6 cells.
The like results for `Cc1cc(-c2cnc3[nH]ccc3n2)cc2c1C(=O)N([C@@H](C)C1CC1)C2` were, in that order, 4.3 and 146 µL/min/1e6 cells.
For `Cc1cc(-c2nccnc2N)cc2c1C(=O)N([C@@H](C)C1CC1)C2`, in that order: 2.6 and 43 µL/min/1e6 cells.
`CC(=O)Nc1nc(C)c(-c2cc3c(c(S(=O)(=O)CCCO)c2)C(=O)N([C@@H](C)C2CC2)C3)s1` had a logD in data set [1] of 1.9. Moreover, the hepatocyte CLint in [2] came to 6 µL/min/1e6 cells.
Consider `CNS(=O)(=O)c1cc(-c2sc(NC(C)=O)nc2C)cc2c1C(=O)N([C@@H](C)C1CC1)C2`, for which the hepatocyte CLint in data set [3] is 2.1 µL/min/1e6 cells; in [6], 0.5 µL/min/1e6 cells; in data set [2] it was 4.5 to 5 µL/min/1e6 cells. The logD in data set [1] came to 3. Further, the Vd in data set [4] was found to be 1 L/kg; in data set [8], 2.2 L/kg. The figures for the bioavailability in data set [11] and in data set [9] were 44% and 30%, respectively. Further, the clearance was determined as 4.4 mL/min/kg in [5] and 2.1 mL/min/kg in data set [12]. In addition, the values for the half-life in data set [7] and in data set [10] were 12 h and 2.6 h, respectively.
`CC(=O)Nc1ncc(-c2cc(Cl)c3c(c2)CN([C@@H](C)C2CC2)C3=O)s1`: the logD in data set [1] is 3.8. Besides, in data set [2], the hepatocyte CLint turned out to be 2 µL/min/1e6 cells.
For `CNC(=O)c1nc(-c2cc(C)c3c(c2)CN([C@@H](C)C2CC2)C3=O)cnc1N`, in that order: 3.8 and 4 µL/min/1e6 cells.

(Values after ChEMBL document CHEMBL4118226, “Discovery of Highly Isoform Selective Orally Bioavailable Phosphoinositide 3-Kinase (PI3K)-γ Inhibitors” (J Med Chem, 2018).)
